# Measured values published in patent publication US12084445B2, “Broad-spectrum carbapenems” (VenatoRx Pharmaceuticals, Inc., priority 2018, dated 2024).
# Read-outs that look alike come from different tables or passages of the source.
# What was measured:
# Type in all cases: cell-based
# [1] = system: S. aureus ATCC 33591 (methicillin-resistant); assay: broth microdilution MIC assay, S. aureus ATCC 33591; settings: Staphylococcus aureus
# Summary of the method: (§1)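 Colonies from Mueller Hinton II agar → MH broth (divalent cations supplemented), 37 °C, 200 rpm, 3-5 h → OD600-adjusted to 5×10^5 CFU/mL final → 2-fold serial compound dilutions → 16-20 h, 37 °C → visual MIC.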
# [2] = system: clinical isolate P. aeruginosa PA 8; assay: broth microdilution MIC assay, P. aeruginosa PA 8; settings: Pseudomonas aeruginosa, P. aeruginosa PA8
# Summary of the method: as §1
# [3] = system: E. coli ATCC 25922 (wild-type/QC strain); assay: broth microdilution MIC assay, E. coli ATCC 25922; settings: Escherichia coli, ATCC25922, E. coli 25922, read-out: E. coli 25922 MIC
# Summary of the method: as §1
# [4] = system: S. aureus ATCC 29213 (methicillin sensitive); assay: broth microdilution MIC assay, S. aureus ATCC 29213; settings: Staphylococcus aureus, ATCC 29213 / MSSA; Table 3; S. aureus 29213 (MSSA); read-out: S. aureus 29213 (MSSA) MIC
# Experimental: (§2) To determine the ability of test compounds to potentiate the inhibition of the growth of bacterial strains, classic cell-based broth microdilution MIC assays were employed. MIC assays are performed according to CLSI methods except where otherwise noted (CLSI, 2011 and CLSI, 2009). The reference strains S. aureus ATCC 29213 (methicillin sensitive), S. aureus ATCC 33591 (methicillin-resistant), E. coli ATCC 25922 (wild-type/QC strain), P. aeruginosa ATCC 27853 (wild-type/QC strain), and the clinical isolate P. aeruginosa PA 8 were used to determine the ability of the exemplary carbapenem compounds to inhibit bacterial growth. An expanded panel of methicillin resistance S. aureus (MRSA) and Pseudomonas was also used to determine the ability of exemplary carbapenem compounds to inhibit bacterial growth across a broader representation of those species. To determine activity in MRSA and in addition to S. aureus ATCC 33591, S. aureus USA 300, USA 400 and USA 600, some of the most common clones found to cause human infection, were also used. To further gauge the impact on the carbapenem compounds due to various resistance mechanisms in Pseudomonas, the following strains were included: P. aeruginosa 35151 (hyper-permeable strain), P. aeruginosa AmexAB-OprM (an efflux pump knockout), and P. aeruginosa PA 3 (a clinical isolate of reduced carbapenem susceptibility). Briefly, cryo-preserved bacterial cultures of clinical strains are streaked for isolation on appropriate agar medium, in this case Mueller Hinton II agar. Following incubation to allow formation of colonies, these plates are sealed with parafilm and stored refrigerated for up to two weeks. For preparation of assay inocula and to ensure low variability, at least 5 colonies are picked from the agar plates with an inoculating loop and aseptically transferred to a culture tube containing 3 mL of Mueller-Hinton Broth (supplemented with divalent cations to required levels based on Manufacturers' specification). The broth culture is grown for 3-5 hours at 37° C. with shaking at 200 rpm. Meanwhile, 2-fold serial dilutions of test compounds are conducted in a 96 well plate with a final volume of 75 μL per well at 2-fold the final desired concentration. After the dilution plates are set up the growing cultures are then diluted in a cuvette containing MH II broth and the optical density is measured at 600 nm. Inocula are diluted such that 75 μL of this culture in Mueller-Hinton Broth results in a starting bacterial concentration of 5×10^5 CFU/mL when added to the dilution plates. The plates are incubated 16-20 hours at 37° C. The MIC is read visually as the lowest concentration well with no bacterial growth.
# (§3) Representative results are shown in Tables 3, 4, and 5 where A represents an MIC>32 μg/mL, B represents an MIC between 8 and 32 μg/mL inclusive, C represents an MIC between 1 and 4 μg/mL inclusive, and D represents an MIC of <1 μg/mL. NT=Not Tested.
# [5] = system: P. aeruginosa ATCC 27853 (wild-type/QC strain); assay: broth microdilution MIC assay, P. aeruginosa ATCC 27853; settings: Pseudomonas aeruginosa, ATCC27853, P. aeruginosa 27853, read-out: P. aeruginosa 27853 MIC
# Summary of the method: as §1
# S. aureus USA 300 = assay: broth microdilution MIC assay, S. aureus USA 300; settings: Staphylococcus aureus; Table 4; S. aureus USA300; read-out: S. aureus USA300 MIC
# Summary of the method: as §1
# [6] = system: P. aeruginosa PA 3 (a clinical isolate of reduced carbapenem susceptibility); assay: broth microdilution MIC assay, P. aeruginosa PA 3; settings: Pseudomonas aeruginosa; Table 5; P. aeruginosa PA3
# Experimental: as §2, §3
# S. aureus USA400 = assay: broth microdilution MIC assay, S. aureus USA 400; settings: Staphylococcus aureus, Table 4
# Experimental: as §2, §3
# S. aureus USA600 = assay: broth microdilution MIC assay, S. aureus USA 600; settings: Staphylococcus aureus; Table 4; S. aureus USA600; read-out: S. aureus USA600 MIC
# Summary of the method: as §1
# [7] = system: P. aeruginosa ΔmexAB-OprM (an efflux pump knockout); assay: broth microdilution MIC assay, P. aeruginosa ΔmexAB-OprM; settings: Pseudomonas aeruginosa, 20 h, read-out: P. aeruginosa ΔmexAB-OprM MIC
# Summary of the method: as §1
# [8] = system: P. aeruginosa 35151 (hyper-permeable strain); assay: broth microdilution MIC assay, P. aeruginosa 35151; settings: Pseudomonas aeruginosa, read-out: P. aeruginosa 35151 MIC
# Summary of the method: as §1
# [9] = ATCC 33591 / MRSA, Table 3, S. aureus 33591 (MRSA), read-out: S. aureus 33591 (MRSA) MIC
# [10] = ATCC33591, Table 4, S. aureus 33591, read-out: S. aureus 33591 MIC
Structure (SMILES),"MIC [1, 9]",MIC ([2]; Table 3),MIC ([3]; Table 3),MIC [4],MIC ([5]; Table 3),"MIC [1, 10]",MIC ([2]; Table 5),MIC (S. aureus USA 300),MIC [6],MIC (S. aureus USA400),MIC ([3]; Table 4),MIC ([5]; Table 5),MIC (S. aureus USA600),MIC [7],MIC [8]
"CN[C@H]1CC[C@@H](CN2CC[C@@H](SC3=C(C(=O)O)N4C(=O)[C@H]([C@@H](C)O)[C@H]4[C@H]3C)C2)CC1 [Example 22, (4R,5S,6S)-6-((R)-1-hydroxyethyl)-4-methyl-3-(((R)-1-(((1s,4S)-4-(methylamino)cyclohexyl)methyl)pyrrolidin-3-yl)thio)-7-oxo-1-azabicyclo[3.2.0]hept-2-ene-2-carboxylic acid]",8 to 32 mg/L,1 to 4 mg/L,< 1 mg/L,1 to 4 mg/L,1 to 4 mg/L,,,,,,,,,,
"C[C@@H](O)[C@H]1C(=O)N2C(C(=O)O)=C(S[C@@H]3CCN([C@H]4CC[C@H](N)CC4)C3)[C@H](C)[C@H]12 [Example 24, (4R,5S,6S)-3-(((R)-1-((1s,4S)-4-aminocyclohexyl)pyrrolidin-3-yl)thio)-6-((R)-1-hydroxyethyl)-4-methyl-7-oxo-1-azabicyclo[3.2.0]hept-2-ene-2-carboxylic acid]",8 to 32 mg/L,8 to 32 mg/L,< 1 mg/L,1 to 4 mg/L,1 to 4 mg/L,,,,,,,,,,
"C[C@@H](O)[C@H]1C(=O)N2C(C(=O)O)=C(S[C@@H]3CCN(CCCN)C3)[C@H](C)[C@H]12 [Example 36, (4R,5S,6S)-3-(((R)-1-(3-aminopropyl)pyrrolidin-3-yl)thio)-6-((R)-1-hydroxyethyl)-4-methyl-7-oxo-1-azabicyclo[3.2.0]hept-2-ene-2-carboxylic acid]",> 32 mg/L,8 to 32 mg/L,< 1 mg/L,,8 to 32 mg/L,> 32 mg/L,8 to 32 mg/L,8 to 32 mg/L,> 32 mg/L,8 to 32 mg/L,< 1 mg/L,8 to 32 mg/L,,,
"CNCCCCN1CC[C@@H](SC2=C(C(=O)O)N3C(=O)[C@H]([C@@H](C)O)[C@H]3[C@H]2C)C1 [Example 37, (4R,5S,6S)-6-((R)-1-hydroxyethyl)-4-methyl-3-(((R)-1-(4-(methylamino)butyl)pyrrolidin-3-yl)thio)-7-oxo-1-azabicyclo[3.2.0]hept-2-ene-2-carboxylic acid]",8 to 32 mg/L,8 to 32 mg/L,< 1 mg/L,,1 to 4 mg/L,8 to 32 mg/L,1 to 4 mg/L,8 to 32 mg/L,8 to 32 mg/L,1 to 4 mg/L,< 1 mg/L,1 to 4 mg/L,,,
"C[C@@H](O)[C@H]1C(=O)N2C(C(=O)O)=C(S[C@@H]3CCN(C4CCC(N)(CN)CC4)C3)[C@H](C)[C@H]12 (stereo partly drawn) [Example 38, (4R,5S,6S)-3-(((R)-1-(4-amino-4-(aminomethyl)cyclohexyl)pyrrolidin-3-yl)thio)-6-((R)-1-hydroxyethyl)-4-methyl-7-oxo-1-azabicyclo[3.2.0]hept-2-ene-2-carboxylic acid]",8 to 32 mg/L,8 to 32 mg/L,< 1 mg/L,,8 to 32 mg/L,8 to 32 mg/L,8 to 32 mg/L,8 to 32 mg/L,8 to 32 mg/L,1 to 4 mg/L,< 1 mg/L,8 to 32 mg/L,,,
"C[C@@H](O)[C@H]1C(=O)N2C(C(=O)O)=C(S[C@@H]3CCCN(CC4CCNCC4)C3)[C@H](C)[C@H]12 [Example 43, (4R,5S,6S)-6-((R)-1-hydroxyethyl)-4-methyl-7-oxo-3-(((R)-1-(piperidin-4-ylmethyl)piperidin-3-yl)thio)-1-azabicyclo[3.2.0]hept-2-ene-2-carboxylic acid]",,,,,,8 to 32 mg/L,> 32 mg/L,1 to 4 mg/L,> 32 mg/L,,< 1 mg/L,8 to 32 mg/L,1 to 4 mg/L,8 to 32 mg/L,< 1 mg/L
"C[C@@H](O)[C@H]1C(=O)N2C(C(=O)O)=C(S[C@@H]3CCN(C[C@@H]4CNCCO4)C3)[C@H](C)[C@H]12 [Example 49, (4R,5S,6S)-6-((R)-1-hydroxyethyl)-4-methyl-3-(((R)-1-(((S)-morpholin-2-yl)methyl)pyrrolidin-3-yl)thio)-7-oxo-1-azabicyclo[3.2.0]hept-2-ene-2-carboxylic acid]",,,,,,8 to 32 mg/L,1 to 4 mg/L,1 to 4 mg/L,8 to 32 mg/L,,< 1 mg/L,8 to 32 mg/L,1 to 4 mg/L,1 to 4 mg/L,< 1 mg/L
"C[C@@H](O)[C@H]1C(=O)N2C(C(=O)O)=C(S[C@@H]3CCN(C[C@H]4CNCCO4)C3)[C@H](C)[C@H]12 [Example 50, (4R,5S,6S)-6-((R)-1-hydroxyethyl)-4-methyl-3-(((R)-1-(((R)-morpholin-2-yl)methyl)pyrrolidin-3-yl)thio)-7-oxo-1-azabicyclo[3.2.0]hept-2-ene-2-carboxylic acid]",,,,,,1 to 4 mg/L,1 to 4 mg/L,1 to 4 mg/L,8 to 32 mg/L,,< 1 mg/L,1 to 4 mg/L,1 to 4 mg/L,1 to 4 mg/L,< 1 mg/L
"C[C@@H](O)[C@H]1C(=O)N2C(C(=O)O)=C(S[C@@H]3CCN(C[C@H]4CCNC4)C3)[C@H](C)[C@H]12 [Example 51, (4R,5S,6S)-6-((R)-1-hydroxyethyl)-4-methyl-7-oxo-3-(((R)-1-(((S)-pyrrolidin-3-yl)methyl)pyrrolidin-3-yl)thio)-1-azabicyclo[3.2.0]hept-2-ene-2-carboxylic acid]",,,,,,1 to 4 mg/L,1 to 4 mg/L,1 to 4 mg/L,8 to 32 mg/L,,< 1 mg/L,1 to 4 mg/L,1 to 4 mg/L,1 to 4 mg/L,< 1 mg/L
"C[C@@H](O)[C@H]1C(=O)N2C(C(=O)O)=C(S[C@@H]3CCN(C[C@@H]4CCNC4)C3)[C@H](C)[C@H]12 [Example 53, (4R,5S,6S)-6-((R)-1-hydroxyethyl)-4-methyl-7-oxo-3-(((R)-1-(((R)-pyrrolidin-3-yl)methyl)pyrrolidin-3-yl)thio)-1-azabicyclo[3.2.0]hept-2-ene-2-carboxylic acid]",,,,,,1 to 4 mg/L,1 to 4 mg/L,1 to 4 mg/L,8 to 32 mg/L,,< 1 mg/L,1 to 4 mg/L,1 to 4 mg/L,1 to 4 mg/L,< 1 mg/L
